“And” between values parts separate entries of the source, which are not always exact repeats. Identical values can stand only once.
What was measured:
[1] = Liquid; for mass density: 101.33 kPa
[2] = excess molar enthalpy (molar enthalpy of mixing); xn = mol fraction of the nth substance listed; conditions: 101 kPa, Liquid

OCCO [1,2-ethanediol]
Conditions | vapor or sublimation pressure
[1], 363.15 K | 1.202 kPa and 1.28 kPa and 1.38 kPa

CC(=O)OCCO [2-hydroxyethyl acetate]
[1]
Conditions | mass density [kg/m3] | vapor or sublimation pressure
283.16 K | 1118.6 | –
288.14 K | 1113.8 | –
293.14 K | 1108.9 | –
298.14 K | 1104.1 | –
303.14 K | 1099.2 | –
308.14 K | 1094.4 | –
313.14 K | 1089.5 | –
318.14 K | 1084.6 | –
323.14 K | 1079.7 | –
328.14 K | 1074.8 | –
333.14 K | 1069.9 | –
338.14 K | 1064.9 | –
343.14 K | 1059.9 | –
363.15 K | – | 2.228 kPa [middle of 4 runs]
374.42 K | – | 3.79 kPa
403.66 K | – | 13.81 kPa
417.65 K | – | 23.64 kPa
427.41 K | – | 33.46 kPa
434.9 K | – | 43.3 kPa
440.57 K | – | 53.13 kPa
444.25 K | – | 62.95 kPa
448.78 K | – | 72.79 kPa

CC(=O)OCCO [2-hydroxyethyl acetate] + CC(=O)O
[2], 323.15 K, Flow calorimetry
Conditions | excess molar enthalpy [kcal/mol]
x2 = 0.0798 | -0.0241
x2 = 0.1906 | -0.0502
x2 = 0.2919 | -0.0636
x2 = 0.414 | -0.0664
x2 = 0.5236 | -0.0576
x2 = 0.6224 | -0.0437
x2 = 0.7332 | -0.0223
x2 = 0.8318 | -0.00323
x2 = 0.9203 | 0.00684

CC(=O)OCCO [2-hydroxyethyl acetate] + CC(=O)OCCOC(C)=O
[2], 323.15 K, Flow calorimetry
Conditions | excess molar enthalpy [kcal/mol]
x1 = 0.103 | 0.0688
x1 = 0.231 | 0.13
x1 = 0.3777 | 0.163
x1 = 0.5367 | 0.167
x1 = 0.7024 | 0.142
x1 = 0.8299 | 0.098
x1 = 0.9272 | 0.0495

CC(=O)OCCO [2-hydroxyethyl acetate] + O
[2], 323.15 K, Flow calorimetry
Conditions | excess molar enthalpy [kcal/mol]
x2 = 0.1179 | -0.192
x2 = 0.2578 | -0.176
x2 = 0.3978 | -0.117
x2 = 0.546 | -0.0727
x2 = 0.6907 | -0.0373
x2 = 0.825 | -0.0169
x2 = 0.9399 | -0.00478

CC(=O)OCCO [2-hydroxyethyl acetate] + OCCO
[2], 323.15 K, Flow calorimetry
Conditions | excess molar enthalpy [kcal/mol]
x1 = 0.0784 | 0.0435
x1 = 0.1656 | 0.0808
x1 = 0.2632 | 0.111
x1 = 0.3732 | 0.132
x1 = 0.4718 | 0.139
x1 = 0.5815 | 0.136
x1 = 0.7043 | 0.117
x1 = 0.8065 | 0.0894
x1 = 0.9188 | 0.043

CC(=O)O [acetic acid]
Conditions | vapor or sublimation pressure
[1], 363.15 K | 39.68 kPa and 39.67 kPa and 39.66 kPa

CC(=O)O [acetic acid] + OCCO
excess molar enthalpy [kcal/mol], [2]
Conditions | 298.15 K | 323.15 K
x1 = 0.0489 | 0.00158 | –
x1 = 0.049 | – | 0.00485
x1 = 0.098 | 0.000992 | 0.007
x1 = 0.1472 | -0.000488 | 0.00631
x1 = 0.1964 | -0.0027 | –
x1 = 0.1965 | – | 0.00519
x1 = 0.2458 | -0.00595 | –
x1 = 0.2459 | – | 0.00304
x1 = 0.2953 | -0.00837 | –
x1 = 0.2954 | – | 0.00172
x1 = 0.3449 | -0.011 | –
x1 = 0.345 | – | -0.000206
x1 = 0.3946 | -0.0134 | –
x1 = 0.3947 | – | -0.00151
x1 = 0.4444 | -0.0147 | –
x1 = 0.4445 | – | -0.00229
x1 = 0.4944 | -0.0151 | –
x1 = 0.4945 | – | -0.00167
x1 = 0.5444 | -0.0136 | –
x1 = 0.5445 | – | -0.000263
x1 = 0.5946 | -0.0107 | –
x1 = 0.5947 | – | 0.00282
x1 = 0.6449 | -0.00621 | –
x1 = 0.645 | – | 0.00734
x1 = 0.6953 | 0.00032 | 0.0126
x1 = 0.7458 | 0.00667 | 0.0189
x1 = 0.7964 | 0.0138 | 0.0244
x1 = 0.8471 | 0.0196 | –
x1 = 0.8472 | – | 0.0289
x1 = 0.898 | 0.0224 | 0.0296
x1 = 0.9489 | 0.0184 | 0.0225

CC(=O)OCCOC(C)=O [ethylene diacetate]
Conditions | vapor or sublimation pressure
[1], 363.15 K | 2.744 kPa [middle of 4 runs]

CC(=O)OCCOC(C)=O [ethylene diacetate] + CC(=O)O
[2], 323.15 K, Flow calorimetry
Conditions | excess molar enthalpy [kcal/mol]
x2 = 0.1086 | 0.0418
x2 = 0.2045 | 0.0657
x2 = 0.2899 | 0.0791
x2 = 0.3665 | 0.0863
x2 = 0.4354 | 0.0894
x2 = 0.4979 | 0.0894
x2 = 0.5547 | 0.0877
x2 = 0.6067 | 0.0834
x2 = 0.6544 | 0.0784
x2 = 0.6982 | 0.0736
x2 = 0.7388 | 0.0669
x2 = 0.7763 | 0.06
x2 = 0.8112 | 0.0526
x2 = 0.8437 | 0.0447
x2 = 0.8741 | 0.0375
x2 = 0.9025 | 0.0292
x2 = 0.9291 | 0.0218
x2 = 0.9542 | 0.014
x2 = 0.9778 | 0.00669

CC(=O)OCCOC(C)=O [ethylene diacetate] + O
[2], 323.15 K, Flow calorimetry
Conditions | excess molar enthalpy [kcal/mol]
x2 = 0.0844 | 0.15
x2 = 0.1574 | 0.24
x2 = 0.2211 | 0.299
x2 = 0.2771 | 0.331
x2 = 0.3713 | 0.36
x2 = 0.4473 | 0.361
x2 = 0.5624 | 0.304
x2 = 0.6455 | 0.245
x2 = 0.7342 | 0.182
x2 = 0.8138 | 0.125
x2 = 0.8793 | 0.0798
x2 = 0.9161 | 0.0535
x2 = 0.9444 | 0.0344
x2 = 0.9668 | 0.0189
x2 = 0.9808 | 0.00808

CC(=O)OCCOC(C)=O [ethylene diacetate] + OCCO
[2], 323.15 K, Flow calorimetry
Conditions | excess molar enthalpy [kcal/mol]
x1 = 0.0219 | 0.0483
x1 = 0.0451 | 0.0966
x1 = 0.0698 | 0.142
x1 = 0.096 | 0.19
x1 = 0.1241 | 0.232
x1 = 0.1541 | 0.268
x1 = 0.1862 | 0.302
x1 = 0.2208 | 0.332
x1 = 0.258 | 0.362
x1 = 0.2982 | 0.389
x1 = 0.3419 | 0.412
x1 = 0.3893 | 0.434
x1 = 0.4411 | 0.456
x1 = 0.4979 | 0.466
x1 = 0.5604 | 0.464
x1 = 0.6296 | 0.452
x1 = 0.7066 | 0.418
x1 = 0.7927 | 0.345
x1 = 0.8898 | 0.216

O [water]
Conditions | vapor or sublimation pressure
[1], 363.15 K | 70.09 kPa and 69.93 kPa
